Measurements published in PubChem BioAssay (NCI).
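A five-concentration, 48-hour dose response in 96-well plates underlies each endpoint, interpolated linearly between surrounding concentrations. Definition used: TGI = concentration required for complete inhibition of growth.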

Assays:
Test in all cases: NCI tumour cell line growth inhibition, 48 h
[1] = tested on: MDA-N
[2] = tested on: OVCAR-8 ovarian
[3] = tested on: SNB-19 CNS
[4] = tested on: U251 CNS
[5] = tested on: PC-3 prostate
[6] = tested on: 786-0 renal
[7] = tested on: NCI-H23 lung
[8] = tested on: NCI-H522 lung
[9] = tested on: HS 578T breast
[10] = tested on: CAKI-1 renal
[11] = tested on: EKVX NSCLC
[12] = tested on: HT29 colon
[13] = tested on: K-562 leukemia
[14] = tested on: SW-620 colon
[15] = tested on: SK-MEL-28 melanoma
[16] = tested on: SK-MEL-2 melanoma
[17] = tested on: SF-268 CNS
[18] = tested on: NCI-H226 lung
[19] = tested on: TK-10 renal
[20] = tested on: UACC-257 melanoma
[21] = tested on: HL-60(TB) leukemia
[22] = tested on: UO-31 renal
[23] = tested on: HCT-116 colon
[24] = tested on: SK-OV-3 ovarian
[25] = tested on: SK-MEL-5 melanoma
[26] = tested on: CCRF-CEM leukemia
[27] = tested on: RPMI-8226 leukemia
[28] = tested on: KM12 colon
[29] = tested on: RXF 393 renal
[30] = tested on: NCI/ADR-RES ovarian
[31] = tested on: MDA-MB-231 breast
[32] = tested on: OVCAR-3 ovarian
[33] = tested on: SR leukemia
[34] = tested on: COLO 205 colon
[35] = tested on: MDA-MB-435
[36] = tested on: M14 melanoma
[37] = tested on: HCT-15 colon
[38] = tested on: UACC-62 melanoma
[39] = tested on: NCI-H460 lung
[40] = tested on: DU-145 prostate
[41] = tested on: A498 renal
[42] = tested on: IGROV1 ovarian
[43] = tested on: MOLT-4 leukemia
[44] = tested on: SNB-75 CNS
[45] = tested on: OVCAR-5 ovarian
[46] = tested on: MALME-3M melanoma
[47] = tested on: A549 NSCLC
[48] = tested on: SF-295 CNS
[49] = tested on: SF-539 CNS
[50] = tested on: LOX IMVI melanoma
[51] = tested on: ACHN renal
[52] = tested on: SN12C renal
[53] = tested on: BT-549 breast
[54] = tested on: MCF7 breast
[55] = tested on: HCC-2998 colon
[56] = tested on: HOP-92 NSCLC
[57] = tested on: OVCAR-4 ovarian
[58] = tested on: HOP-62 NSCLC

Measured: TGI

CCOC(=O)Cc1cc(=O)oc2cc(O)ccc12
not listed: [54] | [55] | [56] | [57] | [58]
> 100 µM: all other assays above

O=C(O)C(C(C(=O)O)P(=O)(O)O)P(=O)(O)O (stereo not given)
not listed: [7] | [8] | [10] | [20] | [29] | [30] | [31] | [39] | [48] | [52] | [58]
> 100 µM: all other assays above

CCOC(=O)N1CCN(c2ccc3ccc(N)nc3n2)CC1
not listed: [25] | [29] | [41]
> 100 µM: all other assays above
